The test system of assay [1] is NCI-H358 cells (KRAS G12C). Briefly: Cell viability assay (Cell Counting Kit-8), KRAS G12C. The format is cell-based. As to conditions: Homo sapiens, NCI-H358, 72 hrs. Here is the method: (§1) The purpose of this cellular assay was to determine the effects of test compounds on the proliferation of human cancer cell lines NCI-H358 (ATCC-CRL5807) cells, AGS (ATCC-CRL-1739) cells, SW620 (ATCC-CCL-227) over a 3-day treatment period by quantifying the amount of NADPH present at endpoint using Cell Counting Kit-8.
(§2) Cells were seeded at 5,000 cells/well (NCI-H358), 2,000 cells/well (AGS)2,000 cells/well (SW620) in 96-well assay plates (Corning-3699) and incubated overnight. On the day of the assay, diluted compounds were then added in a final concentration of 0.5% DMSO. After 72 hrs incubation, a tenth of the volume of cell counting kit 8 (Dnjindo-CK04) was added into each well. Read the signal (OD450 minus OD650) using EnVision after 2 hrs incubation. IC50 was determined by fitting a 4-parameter sigmoidal concentration response model.
For orientation: Tetrazolium dyes change colour on reduction, which living cells bring about.

For a further assay, the system named is AGS cells (KRAS G12D). In words: Cell viability assay (Cell Counting Kit-8), KRAS G12D. As to conditions: Homo sapiens, 72 hrs. The format is cell-based. The procedure: as §1, §2
In the next assay the test system is SW620 cells (KRAS G12V). Briefly: Cell viability assay (Cell Counting Kit-8), KRAS G12V. The format is cell-based. As to conditions: Homo sapiens, SW-620, SW620, 72 hrs. The procedure: as §1, §2
Assay [2] deals with phosphorylation of ERK, KRAS G12C in NCI-H358 cells. In words: pERK inhibition assay, KRAS G12C in NCI-H358 cells. As to conditions: NCI-H358, 4 hours. It is filed as cell-based, human. Here is the method: (§3) This assay is to measure the ability of test compounds in inhibiting the phosphorylation of ERK, the downstream signaling of KRAS G12C in NCI-H358 cells, KRAS G12D in AGS cells, and KRAS G12V in SW620. NCI-H358 (ATCC-CRL5807) cells, AGS (ATCC-CRL-1739) cells, SW620 (ATCC-CCL-227) cells were all grown and maintained using RPMI-1640 medium (Thermo Fisher Scientific) with 10% fetal bovine serum and 1% penicillin/streptomycin. On the day prior to compound addition, cells were plated in tissue culture-treated 96 well plates (Corning-3699) at a density of 30,000 cell/well, 20,000 cell/well, 30,000 cell/well for NCI-H358, AGS and SW620 respectively, and allowed for attachment overnight. Diluted compounds were then added in a final concentration of 0.5% DMSO. After 4 hours of incubation, the medium was removed, 100 μL of 4% formaldehyde was added, and the assay plates were incubated at room temperature for 20 minutes. The plates were then washed once with phosphate buffered saline (PBS), and permeabilized with 100 μL of chilled methanol for 10 minutes. Non-specific antibody binding to the plates was blocked using 50 μL 1X BSA blocking buffer (Thermo-37520, 10-fold dilution by Phosphate-Buffered Saline Tween (PBST) for at least 1 hour at room temperature.
(§4) The amount of phosphor-ERK was determined using an antibody specific for phosphorylated form of ERK. Primary antibody (PERK, CST-4370, Cell Signaling Technology) was diluted 1:300 in blocking buffer, with 50 μL aliquoted to each well, and incubated overnight at 4° C. Cells was washed five times for 5 minutes with PBST. Secondary antibody (HRP-linked anti-rabbit IgG, CST-7074, Cell Signaling Technology) was diluted 1:1000 in blocking buffer, and 50 μL was added to each well and incubated 1-2 hrs at room temperature. Cells was washed […] for 5 minutes with PBST, 100 μL TMB ELISA substrate (abcam-ab171523) were added and gently shake for 20 minutes. 50 μL stop solution (abcam-ab171529) were added, and then read the signal (OD450) by EnVision.
(§5) IC50 was determined by fitting a 4-parameter sigmoidal concentration response model.

In assay [3] the test system is phosphorylation of ERK, KRAS G12D in AGS cells. In words: pERK inhibition assay, KRAS G12D in AGS cells. It is filed as cell-based, human. As to conditions: 4 hours. Here is the method:
as §3, §4, §5

Assay [4] concerns phosphorylation of ERK, KRAS G12V in SW620 cells. In words: pERK inhibition assay, KRAS G12V in SW620. The format is cell-based, human. Here is the method:
as §3, §4, §5

[5] abbreviates: Homo sapiens, SW-620, SW620, 4 hours.

pIC50: −log10 of the molar value.

Turning to `CCn1c(-c2cc(N3CCOCC3)cnc2[C@H](C)OC)c2c3cc(c(F)cc31)-c1csc(n1)C[C@H](NC(=O)[C@H](C(C)C)N1CCN(C)C1=O)C(=O)N1CCC[C@H](N1)C(=O)OCC(C)(C)C2` (atropisomer, axis not shown; (M)) [Example 8, (2S)-N-[(7S,13S)-21-ethyl-24-fluoro-(20M)-20-[2-[(1S)-1-methoxyethyl]-5-morpholino-3-pyridyl]-17,17-dimethyl-8,14-dioxo-15-oxa-4-thia-9,21,27,28-tetrazapentacyclo[17.5.2.1^2,5.1^9,13.0^22,26]octacosa-1 (25),2,5 (28),19,22 (26),23-hexaen-7-yl]-3-methyl-2-(3-methyl-2-oxo-imidazolidin-1-yl) butanamide], the negative-log IC50 (pIC50) in assay [1] was 7.92; in the assay on AGS cells (KRAS G12D), 7.24; in the assay with SW620 cells (KRAS G12V), 8.15; in assay [2] (Homo sapiens), 7.62; in assay [3] (Homo sapiens), 7.62; in assay [4] (setting [5]), 8.30.
`CO[C@@H](C)c1ncc(N2CCN(C)CC2)cc1-c1c2c3c(F)c(ccc3n1CC(F)(F)F)-c1csc(n1)C[C@H](NC(=O)[C@H](C(C)C)N(C)C(=O)N1CC(N(C)C)C1)C(=O)N1CCC[C@H](N1)C(=O)OCC(C)(C)C2` (atropisomer, axis not shown; (M)) [Example 2, 3-(dimethylamino)-N-[(1S)-1-[[(7S,13S)-25-fluoro-(20M)-20-[2-[(1S)-1-methoxyethyl]-5-(4-methylpiperazin-1-yl)-3-pyridyl]-17,17-dimethyl-8,14-dioxo-21-(2,2,2-trifluoroethyl)-15-oxa-4-thia-9,21,27,28-tetrazapentacyclo[17.5.2.1^2,5.1^9,13.0^22,26]octacosa-1(25),2,5 (28),19,22 (26),23-hexaen-7-yl]carbamoyl]-2-methyl-propyl]-N-methyl-azetidine-1-carboxamide]: the pIC50 in assay [1] was 8.40; with AGS cells (KRAS G12D), 7.80; in the assay on SW620 cells (KRAS G12V), 8.52; in assay [2] (Homo sapiens), 9.00; in assay [3] (Homo sapiens), 8.30; in assay [4] (setting [5]), 8.40.
For `COC(C)c1ncc(N2CCN(CC(F)(F)F)CC2)cc1-c1c2c3cc(c(F)cc3n1CC(F)(F)F)-c1csc(n1)CC(NC(=O)C(C(C)C)N(C)C(=O)N1CCN(CC(F)(F)F)CC1)C(=O)N1CCCC(N1)C(=O)OCC(C)(C)C2` [Example 19, N-[(1S)-1-[[(7S,13S)-24-fluoro-(20M)-20-[2-[(1S)-1-methoxyethyl]-5-[4-(2,2,2-trifluoroethyl)piperazin-1-yl]-3-pyridyl]-17,17-dimethyl-8,14-dioxo-21-(2,2,2-trifluoroethyl)-15-oxa-4-thia-9,21,27,28-tetrazapentacyclo[17.5.2.1^2,5.1^9,13.0^22,26]octacosa-1 (25),2,5 (28),19,22 (26),23-hexaen-7-yl]carbamoyl]-2-methyl-propyl]-N-methyl-4-(2,2,2-trifluoroethyl) piperazine-1-carboxamide], the pIC50 in assay [2] is 7.18; in assay [3], 7.27; in assay [4] (SW620, 4 hours), 7.80.
Regarding `COC(C)c1ncc(N2CCN(CC(F)(F)F)CC2)cc1-c1c2c3cc(c(F)cc3n1CC(F)(F)F)-c1csc(n1)CC(NC(=O)C(C(C)C)N(C)C(=O)N1CCN(C)CC1)C(=O)N1CCCC(N1)C(=O)OCC(C)(C)C2` [Example 18, N-[(1S)-1-[[(7S,13S)-24-fluoro-(20M)-20-[2-[(1S)-1-methoxyethyl]-5-[4-(2,2,2-trifluoroethyl)piperazin-1-yl]-3-pyridyl]-17,17-dimethyl-8,14-dioxo-21-(2,2,2-trifluoroethyl)-15-oxa-4-thia-9,21,27,28-tetrazapentacyclo[17.5.2.1^2,5.1^9,13.0^22,26]octacosa-1 (25),2,5 (28),19,22 (26),23-hexaen-7-yl]carbamoyl]-2-methyl-propyl]-N,4-dimethyl-piperazine-1-carboxamide], the negative-log IC50 (pIC50) in assay [2] was 7.64; in assay [3] it was 7.92; in assay [4] (SW620, 4 hours), 8.15.
For `CO[C@@H](C)c1ncc(N2CCN(C)CC2)cc1-c1c2c3cc(ccc3n1CC(F)(F)F)-c1csc(n1)C[C@H](NC(=O)[C@H](C(C)C)N(C)C(=O)N1CCOCC1)C(=O)N1CCC[C@H](N1)C(=O)OCC(C)(C)C2` (atropisomer, axis not shown; (M)) [Example 3, N-[(1S)-1-[[(7S,13S)-24-fluoro-(20M)-20-[2-[(1S)-1-methoxyethyl]-5-(4-methylpiperazin-1-yl)-3-pyridyl]-17,17-dimethyl-8,14-dioxo-21-(2,2,2-trifluoroethyl)-15-oxa-4-thia-9,21,27,28-tetrazapentacyclo[17.5.2.1^2,5.1^9,13.0^22,26]octacosa-1 (25),2,5 (28),19,22 (26),23-hexaen-7-yl]carbamoyl]-2-methyl-propyl]-N-methyl-morpholine-4-carboxamide], the negative logarithm of the IC50 (pIC50) is 9.00 in assay [1]; 7.82 with AGS cells (KRAS G12D); 9.00 in the assay on SW620 cells (KRAS G12V); 9.00 in assay [2] (Homo sapiens); 9.00 in assay [3] (Homo sapiens); 9.00 in assay [4] (setting [5]).
As for `CO[C@@H](C)c1ncc(N2CCOCC2)cc1-c1c2c3cc(c(F)cc3n1CC(F)(F)F)-c1csc(n1)C[C@H](NC(=O)[C@H](C(C)C)N(C)C(=O)N1CC(N(C)C)C1)C(=O)N1CCC[C@H](N1)C(=O)OCC(C)(C)C2` (atropisomer, axis not shown; (M)) [Example 4, 3-(dimethylamino)-N-[(1S)-1-[[(7S,13S)-24-fluoro-(20M)-20-[2-[(1S)-1-methoxyethyl]-5-morpholino-3-pyridyl]-17,17-dimethyl-8,14-dioxo-21-(2,2,2-trifluoroethyl)-15-oxa-4-thia-9,21,27,28-tetrazapentacyclo[17.5.2.1^2,5.1^9,13.0^22,26]octacosa-1 (25),2,5 (28),19,22 (26),23-hexaen-7-yl]carbamoyl]-2-methyl-propyl]-N-methyl-azetidine-1-carboxamide], the pIC50 in assay [1] was 8.52; with AGS cells (KRAS G12D), 7.77; in the assay on SW620 cells (KRAS G12V), 9.00; in assay [2] (Homo sapiens) it was 9.00; in assay [3] (Homo sapiens), 8.52; in assay [4] (setting [5]), 9.00.

One may read the pIC50 as the negative decadic logarithm of the IC50, by convention in mol/L. The low end stands for a high IC50, the high end for a low IC50.

These data come from patent US20250268894A1, “MACROCYCLE COMPOUNDS FOR THE TREATMENT OF CANCER” (Hoffmann-La Roche Inc., priority 2022, published 2025).
